Legend:
ISC-enriched organoids [1] = experiment: Primary screen, 384-well 2.5-D organoid differentiation (ENR+CD, 6 days): basal lysozyme secretion (LYZ.NS); assay type: cell-based, murine; conditions: for Dose.FC.LYZ.NS: FC vs plate median
Source text: (§1) High-throughput screening.

ISC-enriched organoids [2] = experiment: Primary screen, 384-well 2.5-D organoid differentiation (ENR+CD, 6 days): carbachol-induced lysozyme secretion (LYZ.S); assay type: cell-based, murine; conditions: FC vs plate median
Source text: as §1

ISC-enriched organoids [3] = experiment: Primary screen, 384-well 2.5-D organoid differentiation (ENR+CD, 6 days, Target Selective Inhibitor Library, vs whole-plate median): ATP (CellTiter-Glo 3D, CTG); conditions: for Dose.FC.CTG: FC vs plate median
[4] = Dose 0.08 uM, standard z score of FC
[5] = Dose 0.40 uM, standard z score of FC
[6] = Dose 2.00 uM, standard z score of FC
[7] = Dose 10.00 uM, standard z score of FC
[8] = Dose 0.08 uM, primary screen, standard z score
[9] = Dose 0.40 uM, primary screen, standard z score
[10] = Dose 2.00 uM, primary screen, standard z score
[11] = Dose 10.00 uM, primary screen, standard z score

Row | Compound | Dose.FC.LYZ.NS (ISC-enriched organoids [1]; Dose 0.08 uM, primary screen) | Z.LYZ.NS (ISC-enriched organoids [1]; [8]) | Dose.FC.LYZ.NS (ISC-enriched organoids [1]; Dose 0.40 uM, primary screen) | Z.LYZ.NS (ISC-enriched organoids [1]; [9]) | Dose.FC.LYZ.NS (ISC-enriched organoids [1]; Dose 2.00 uM, primary screen) | Z.LYZ.NS (ISC-enriched organoids [1]; [10]) | Dose.FC.LYZ.NS (ISC-enriched organoids [1]; Dose 10.00 uM, primary screen) | Z.LYZ.NS (ISC-enriched organoids [1]; [11]) | Dose.FC.LYZ.S (ISC-enriched organoids [2]; Dose 0.08 uM, primary screen) | Dose.FC.LYZ.S (ISC-enriched organoids [2]; Dose 0.40 uM, primary screen) | Dose.FC.LYZ.S (ISC-enriched organoids [2]; Dose 2.00 uM, primary screen) | Dose.FC.LYZ.S (ISC-enriched organoids [2]; Dose 10.00 uM, primary screen) | Dose.FC.CTG (ISC-enriched organoids [3]; Dose 0.08 uM, primary screen) | Z.CTG (ISC-enriched organoids [3]; [8]) | Dose.FC.CTG (ISC-enriched organoids [3]; Dose 0.40 uM, primary screen) | Z.CTG (ISC-enriched organoids [3]; [9]) | Dose.FC.CTG (ISC-enriched organoids [3]; Dose 2.00 uM, primary screen) | Z.CTG (ISC-enriched organoids [3]; [10]) | Dose.FC.CTG (ISC-enriched organoids [3]; Dose 10.00 uM, primary screen) | Z.CTG (ISC-enriched organoids [3]; [11]) | other results
1 | CS(=O)(=O)N1CCN(Cc2cc3nc(-c4cccc5[nH]ncc45)nc(N4CCOCC4)c3s2)CC1 [GDC-0941] |  |  |  |  |  |  |  |  |  |  |  |  |  |  |  |  |  |  |  |  | Dose.FC.LYZ.NS (ISC-enriched organoids [1]; Dose 0.08 uM, ENR+CD, 6 days): 0.008 log 2 fold change; Z.LYZ.NS (ISC-enriched organoids [1]; [4]): 0.070; Dose.FC.LYZ.NS (ISC-enriched organoids [1]; Dose 0.40 uM, ENR+CD, 6 days): −0.013 log 2 fold change; Z.LYZ.NS (ISC-enriched organoids [1]; [5]): −0.112; Dose.FC.LYZ.NS (ISC-enriched organoids [1]; Dose 2.00 uM, ENR+CD, 6 days): −0.128 log 2 fold change; Z.LYZ.NS (ISC-enriched organoids [1]; [6]): −1.113; Dose.FC.LYZ.NS (ISC-enriched organoids [1]; Dose 10.00 uM, ENR+CD, 6 days): −0.156 log 2 fold change; Z.LYZ.NS (ISC-enriched organoids [1]; [7]): −1.362; Dose.FC.LYZ.S (ISC-enriched organoids [2]; Dose 0.08 uM, ENR+CD, 6 days): 0.018 log 2 fold change; Dose.FC.LYZ.S (ISC-enriched organoids [2]; Dose 0.40 uM, ENR+CD, 6 days): −0.076 log 2 fold change; Dose.FC.LYZ.S (ISC-enriched organoids [2]; Dose 2.00 uM, ENR+CD, 6 days): −0.248 log 2 fold change; Dose.FC.LYZ.S (ISC-enriched organoids [2]; Dose 10.00 uM, ENR+CD, 6 days): −0.257 log 2 fold change; Dose.FC.CTG (ISC-enriched organoids [3]; Dose 0.08 uM, ENR+CD, 6 days): 0.283 log 2 fold change; Z.CTG (ISC-enriched organoids [3]; [4]): 0.677; Dose.FC.CTG (ISC-enriched organoids [3]; Dose 0.40 uM, ENR+CD, 6 days): 0.022 log 2 fold change; Z.CTG (ISC-enriched organoids [3]; [5]): 0.053; Dose.FC.CTG (ISC-enriched organoids [3]; Dose 2.00 uM, ENR+CD, 6 days): −0.197 log 2 fold change; Z.CTG (ISC-enriched organoids [3]; [6]): −0.472; Dose.FC.CTG (ISC-enriched organoids [3]; Dose 10.00 uM, ENR+CD, 6 days): −1.223 log 2 fold change; Z.CTG (ISC-enriched organoids [3]; [7]): −2.921
2 | NC(=O)c1cccc(-c2cc(Nc3ccc(OC(F)(F)F)cc3)ncn2)c1 [GNF-2] | 0.159 log 2 fold change | 1.386 | −0.024 log 2 fold change | −0.206 | 0.012 log 2 fold change | 0.102 | −0.033 log 2 fold change | −0.286 | 0.121 log 2 fold change | 0.001 log 2 fold change | 0.046 log 2 fold change | −0.015 log 2 fold change | 0.157 log 2 fold change | 0.376 | 0.090 log 2 fold change | 0.214 | 0.074 log 2 fold change | 0.176 | 0.100 log 2 fold change | 0.240 | 
3 | CC1=C(C(=O)Nc2cc3cn[nH]c3cc2F)C(c2ccc(C(F)(F)F)cc2)CC(=O)N1 (stereo not shown) [GSK429286A] | 0.137 log 2 fold change | 1.197 | 0.128 log 2 fold change | 1.117 | 0.140 log 2 fold change | 1.222 | 0.059 log 2 fold change | 0.517 | 0.247 log 2 fold change | 0.283 log 2 fold change | 0.245 log 2 fold change | 0.099 log 2 fold change | 0.527 log 2 fold change | 1.260 | 0.545 log 2 fold change | 1.302 | 0.488 log 2 fold change | 1.166 | 0.370 log 2 fold change | 0.883 | 
4 | C[C@@H](Oc1cc(-n2cnc3ccc(CN4CCN(C)CC4)cc32)sc1C(N)=O)c1ccccc1C(F)(F)F [GSK461364] | 0.078 log 2 fold change | 0.682 | −0.096 log 2 fold change | −0.834 | −0.246 log 2 fold change | −2.138 | −0.287 log 2 fold change | −2.498 | 0.112 log 2 fold change | −0.093 log 2 fold change | −0.352 log 2 fold change | −0.390 log 2 fold change | 0.160 log 2 fold change | 0.383 | −0.154 log 2 fold change | −0.368 | −0.628 log 2 fold change | −1.500 | −0.621 log 2 fold change | −1.484 | 
5 | CCn1c(-c2nonc2N)nc2c(C#CC(C)(C)O)ncc(OC[C@H]3CCCNC3)c21 [GSK690693] | 0.045 log 2 fold change | 0.388 | 0.047 log 2 fold change | 0.409 | 0.122 log 2 fold change | 1.060 | −0.080 log 2 fold change | −0.698 | 0.019 log 2 fold change | 0.155 log 2 fold change | 0.124 log 2 fold change | −0.153 log 2 fold change | 0.129 log 2 fold change | 0.308 | 0.197 log 2 fold change | 0.470 | −0.027 log 2 fold change | −0.064 | −0.182 log 2 fold change | −0.434 | 
